Laboratory results: patent US9499550B2 (BRISTOL-MYERS SQUIBB COMPANY, priority 2012, dated 2016)
Read-outs that look alike come from different tables or passages of the source.

What was measured:
[1] = system: HCV genotype 1a (H77 strain) replicon in HUH-7 cells; assay: HCV replicon luciferase reporter assay, genotype 1a; type: cell-based; conditions: Hepatitis C virus, Huh-7, 72 h, 3 days incubation, read-out: LE_1a (EC50, range)
How it was run: (§1)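 Replicon inhibition for both genotypes was measured as Renilla luciferase signal (EnduRen, 7.5 μM final, 2 h) after 3-day, 37° C exposure of replicon-bearing HUH-7 cells in 4% FCS DMEM, 0.5% DMSO. The 1b construct carries S1179I; the 1a H77 construct carries P1496L and S2204I. Twenty-point, 3-fold dilutions were fitted four-parametrically for EC50, and CC50 was taken from multiplexed Cell Titer-Blue.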

[2] = system: HCV genotype 1b (Con1) replicon in HUH-7 cells; assay: HCV replicon luciferase reporter assay, genotype 1b; type: cell-based; conditions: Hepatitis C virus, Huh-7, 72 h, 3 days incubation, read-out: LE_1b (EC50, range)
How it was run: as §1

[3] = GETYPE1A, HCV genotype 1a replicon luciferase
[4] = GETYPE1B, HCV genotype 1b replicon luciferase
[5] = HCV genotype 1a replicon luciferase
[6] = HCV genotype 1b replicon luciferase
[7] = HCV genotype 1a replicon luciferase assay, range class
[8] = HCV genotype 1b replicon luciferase assay, range class

SMILES | EC50 [1, 5] | EC50 [2, 6] | also measured
CCOc1cnc(O[C@@H]2C[C@H]3C(=O)N[C@]4(C(=O)NS(=O)(=O)C5(C)CC5)C[C@H]4/C=C\CC[C@@H](C)C[C@@H](C)[C@H](NC(=O)OC(C)(C)C(F)(F)F)C(=O)N3C2)c2ccccc12 [Compound 4041] | – | – | EC50 [1, 3]: < 5.46 nM; EC50 [2, 4]: < 5.46 nM
CC[C@@H]1C[C@H](C)CC/C=C\[C@@H]2C[C@@]2(C(=O)NS(=O)(=O)C2CC2)NC(=O)[C@@H]2C[C@@H](Oc3ncc(C(N)=O)c4cc(OC)ccc34)CN2C(=O)[C@H]1NC(=O)OC(C)(C)C [Compound 4342, tert-butyl ((2R,6S,7R,9R,13aS,14aR,16aS,Z)-2-((4-carbamoyl-6-methoxyisoquinolin-1-yl)oxy)-14a-((cyclopropylsulfonyl)carbamoyl)-7-ethyl-9-methyl-5,16-dioxo-1,2,3,5,6,7,8,9,10,11,13a,14,14a,15,16,16a-hexadecahydrocyclopropa[e]pyrrolo[1,2-a][1,4]diazacyclopentadecin-6-yl)carbamate] | 5.01 to 35 nM | 35 to 620 nM | –
CC[C@@H]1C[C@H](C)CC/C=C\[C@@H]2C[C@@]2(C(=O)NS(=O)(=O)C2(C)CC2)NC(=O)[C@@H]2C[C@@H](Oc3cnnc4cc(OC)ccc34)CN2C(=O)[C@H]1NC(=O)OC(C)(C)C [Compound 4321, tert-butyl ((2R,6S,7R,9R,13aS,14aR,16aS,Z)-7-ethyl-2-((7-methoxycinnolin-4-yl)oxy)-9-methyl-14a-(((1-methylcyclopropyl)sulfonyl)carbamoyl)-5,16-dioxo-1,2,3,5,6,7,8,9,10,11,13a,14,14a,15,16,16a-hexadecahydrocyclopropa[e]pyrrolo[1,2-a][1,4]diazacyclopentadecin-6-yl)carbamate] | 5.01 to 35 nM | 5.01 to 35 nM | –
CCCOc1cnc(O[C@@H]2C[C@H]3C(=O)N[C@]4(C(=O)NS(=O)(=O)C5CC5)C[C@H]4/C=C\CC[C@@H](C)C[C@@H](C)[C@H](NC(=O)OCC4(C)CC4)C(=O)N3C2)c2ccccc12 [Compound 5097, (1-methylcyclopropyl)methyl ((2R,6S,7R,9R,13aS,14aR,16aS,Z)-14a-((cyclopropylsulfonyl)carbamoyl)-7,9-dimethyl-5,16-dioxo-2-((4-propoxyisoquinolin-1-yl)oxy)-1,2,3,5,6,7,8,9,10,11,13a,14,14a,15,16,16a-hexadecahydrocyclopropa[e]pyrrolo[1,2-a][1,4]diazacyclopentadecin-6-yl)carbamate] | < 5.46 nM | < 5.46 nM | –
[2H]C([2H])([2H])C(OC(=O)N[C@@H]1C(=O)N2C[C@H](Oc3nccc4cc(OC(C)C)ccc34)C[C@H]2C(=O)N[C@]2(C(=O)NS(=O)(=O)C3(C)CC3)C[C@H]2/C=C\CC[C@@H](C)C[C@H]1C)(C([2H])([2H])[2H])C([2H])([2H])[2H] [Compound 5167, 1,1,1,3,3,3-hexadeutero-2-(trideuteromethyl)propan-2-yl((2R,6S,7R,9R,13aS,14aR,16aS,Z)-2-((6-isopropoxyisoquinolin-1-yl)oxy)-7,9-dimethyl-14a-(((1-methylcyclopropyl)sulfonyl)carbamoyl)-5,16-dioxo-1,2,3,5,6,7,8,9,10,11,13a,14,14a,15,16,16a-hexadecahydrocyclopropa[e]pyrrolo[1,2-a][1,4]diazacyclopentadecin-6-yl)carbamate] | < 5.46 nM | < 5.46 nM | –
COc1cc2c(OC)cnc(O[C@@H]3C[C@H]4C(=O)N[C@]5(C(=O)NS(=O)(=O)C6(CF)CC6)C[C@H]5/C=C\CC[C@@H](C)C[C@@H](C)[C@H](NC(=O)OC(C)(C)C)C(=O)N4C3)c2cc1F [Compound 4084, tert-butyl (2R,6S,7R,9R,13aS,14aR,16aS,Z)-2-(7-fluoro-4,6-dimethoxyisoquinolin-1-yloxy)-14a-(1-(fluoromethyl)cyclopropylsulfonylcarbamoyl)-7,9-dimethyl-5,16-dioxo-1,2,3,5,6,7,8,9,10,11,13a,14,14a,15,16,16a-hexadecahydrocyclopropa[e]pyrrolo[1,2-a][1,4]diazacyclopentadecin-6-ylcarbamate] | < 5.46 nM | < 5.46 nM | –
COc1ccc2c(O[C@@H]3C[C@H]4C(=O)N[C@]5(C(=O)NS(=O)(=O)C6CC6)C[C@H]5/C=C\CC[C@@H](C)C[C@@H](C)[C@H](NC(=O)OC(C)(C)C(C)(F)F)C(=O)N4C3)nc(-c3ccc(OC(C)C)cn3)cc2c1 [Compound 5475, 3,3-difluoro-2-methylbutan-2-yl((2R,6S,7R,9R,13aS,14aR,16aS,Z)-14a-((cyclopropylsulfonyl)carbamoyl)-2-((3-(5-isopropoxypyridin-2-yl)-6-methoxyisoquinolin-1-yl)oxy)-7,9-dimethyl-5,16-dioxo-1,2,3,5,6,7,8,9,10,11,13a,14,14a,15,16,16a-hexadecahydrocyclopropa[e]pyrrolo[1,2-a][1,4]diazacyclopentadecin-6-yl)carbamate] | 0.51 to 1 nM | 0.51 to 1 nM | –
C[C@@H]1CC/C=C\[C@@H]2C[C@@]2(C(=O)NS(=O)(=O)C2(C)CC2)NC(=O)[C@@H]2C[C@@H](Oc3nccc4c(N5CCOCC5)cccc34)CN2C(=O)[C@@H](NC(=O)OC(C)(C)C)[C@H](C)C1 [Compound 5122, tert-butyl ((2R,6S,7R,9R,13aS,14aR,16aS,Z)-7,9-dimethyl-14a-(((1-methylcyclopropyl)sulfonyl)carbamoyl)-2-((5-morpholinoisoquinolin-1-yl)oxy)-5,16-dioxo-1,2,3,5,6,7,8,9,10,11,13a,14,14a,15,16,16a-hexadecahydrocyclopropa[e]pyrrolo[1,2-a][1,4]diazacyclopentadecin-6-yl)carbamate] | < 5.46 nM | < 5.46 nM | –
CC[C@@H]1C[C@H](C)CC/C=C\[C@@H]2C[C@@]2(C(=O)NS(=O)(=O)C2(C)CC2)NC(=O)[C@@H]2C[C@@H](Oc3ncc(N4CCOCC4)c4cc(OC)ccc34)CN2C(=O)[C@H]1NC(=O)OC(C)(C)C(F)(F)F [Compound 4206] | – | – | EC50 [1, 3]: < 5.46 nM; EC50 [2, 4]: < 5.46 nM
COc1nnc(O[C@@H]2C[C@H]3C(=O)N[C@]4(C(=O)NS(=O)(=O)C5(C)CC5)C[C@H]4/C=C\CC[C@@H](C)C[C@@H](C)[C@H](NC(=O)O[C@@H]4C[C@@H]5C[C@@H]5C4)C(=O)N3C2)c2ccccc12 [Compound 5014, (1R,3r,5S)-bicyclo[3.1.0]hexan-3-yl((2R,6S,7R,9R,13aS,14aR,16aS,Z)-2-((4-methoxyphthalazin-1-yl)oxy)-7,9-dimethyl-14a-(((1-methylcyclopropyl)sulfonyl)carbamoyl)-5,16-dioxo-1,2,3,5,6,7,8,9,10,11,13a,14,14a,15,16,16a-hexadecahydrocyclopropa[e]pyrrolo[1,2-a][1,4]diazacyclopentadecin-6-yl)carbamate] | < 5.46 nM | < 5.46 nM | –
CC[C@@H]1C[C@H](C)CC/C=C\[C@@H]2C[C@@]2(C(=O)NS(=O)(=O)C2(CF)CC2)NC(=O)[C@@H]2C[C@@H](Oc3nccc4c5c(ccc34)N(C)CCO5)CN2C(=O)[C@H]1NC(=O)OC(C)(C)C(C)(F)F [Compound 5463, 3,3-difluoro-2-methylbutan-2-yl((2R,6S,7R,9R,13aS,14aR,16aS,Z)-7-ethyl-14a-(((1-(fluoromethyl)cyclopropyl)sulfonyl)carbamoyl)-9-methyl-2-((4-methyl-3,4-dihydro-2H-[1,4]oxazino[2,3-f]isoquinolin-7-yl)oxy)-5,16-dioxo-1,2,3,5,6,7,8,9,10,11,13a,14,14a,15,16,16a-hexadecahydrocyclopropa[e]pyrrolo[1,2-a][1,4]diazacyclopentadecin-6-yl)carbamate] | 5.01 to 35 nM | 5.01 to 35 nM | –
CCCOc1cc2c(Cl)cccc2c(O[C@@H]2C[C@H]3C(=O)N[C@]4(C(=O)NS(=O)(=O)C5CC5)C[C@H]4/C=C\CC[C@H](C)C[C@@H](C)[C@H](NC(=O)O[C@H](C)C(F)(F)F)C(=O)N3C2)n1 [Compound 1081, (R)-1,1,1-trifluoropropan-2-yl ((2R,6S,7R,9S,13aS,14aR,16aS,Z)-2-((5-chloro-3-propoxyisoquinolin-1-yl)oxy)-14a-((cyclopropylsulfonyl)carbamoyl)-7,9-dimethyl-5,16-dioxo-1,2,3,5,6,7,8,9,10,11,13a,14,14a,15,16,16a-hexadecahydrocyclopropa[e]pyrrolo[1,2-a][1,4]diazacyclopentadecin-6-yl)carbamate] | – | – | EC50 [1, 7]: 4.82 to 103 nM; EC50 [2, 8]: < 5.46 nM
COc1ccc2c(O[C@@H]3C[C@H]4C(=O)N[C@]5(C(=O)NS(=O)(=O)C6(C)CC6)C[C@H]5/C=C\CC[C@@H](C)C[C@@H](C)[C@H](NC(=O)OC(C)(C)C(F)(F)F)C(=O)N4C3)nc(-c3ccc(F)cc3)cc2c1 [Compound 3080, 1,1,1-trifluoro-2-methylpropan-2-yl((2R,6S,7R,9R,13aS,14aR,16aS,Z)-2-((3-(4-fluorophenyl)-6-methoxyisoquinolin-1-yl)oxy)-7,9-dimethyl-14a-(((1-methylcyclopropyl)sulfonyl)carbamoyl)-5,16-dioxo-1,2,3,5,6,7,8,9,10,11,13a,14,14a,15,16,16a-hexadecahydrocyclopropa[e]pyrrolo[1,2-a][1,4]diazacyclopentadecin-6-yl)carbamate] | – | – | EC50 [1, 7]: < 5.46 nM; EC50 [2, 8]: < 5.46 nM
